Source: US7825129B2, “Thieno[2,3-c] isoquinolines for use as inhibitors of PARP” (priority 2000, dated 2010)

Assays:
[1] = target: T1, poly(ADP-ribose) polymerase (PARP) (Bos taurus, UniProt P18493); experiment: Activity against purified PARP, [3H]NAD incorporation; type: biochemical; conditions: purified PARP from foetal calf thymus, 37° C., 30 mins; read-out: IC50 of PARP inhibitors tested on enzyme prepared from bovine thymus
T1 construct: purified PARP derived from foetal calf thymus; from tissue; host or cells: foetal calf thymus
T1 sequence (P18493 whole entry): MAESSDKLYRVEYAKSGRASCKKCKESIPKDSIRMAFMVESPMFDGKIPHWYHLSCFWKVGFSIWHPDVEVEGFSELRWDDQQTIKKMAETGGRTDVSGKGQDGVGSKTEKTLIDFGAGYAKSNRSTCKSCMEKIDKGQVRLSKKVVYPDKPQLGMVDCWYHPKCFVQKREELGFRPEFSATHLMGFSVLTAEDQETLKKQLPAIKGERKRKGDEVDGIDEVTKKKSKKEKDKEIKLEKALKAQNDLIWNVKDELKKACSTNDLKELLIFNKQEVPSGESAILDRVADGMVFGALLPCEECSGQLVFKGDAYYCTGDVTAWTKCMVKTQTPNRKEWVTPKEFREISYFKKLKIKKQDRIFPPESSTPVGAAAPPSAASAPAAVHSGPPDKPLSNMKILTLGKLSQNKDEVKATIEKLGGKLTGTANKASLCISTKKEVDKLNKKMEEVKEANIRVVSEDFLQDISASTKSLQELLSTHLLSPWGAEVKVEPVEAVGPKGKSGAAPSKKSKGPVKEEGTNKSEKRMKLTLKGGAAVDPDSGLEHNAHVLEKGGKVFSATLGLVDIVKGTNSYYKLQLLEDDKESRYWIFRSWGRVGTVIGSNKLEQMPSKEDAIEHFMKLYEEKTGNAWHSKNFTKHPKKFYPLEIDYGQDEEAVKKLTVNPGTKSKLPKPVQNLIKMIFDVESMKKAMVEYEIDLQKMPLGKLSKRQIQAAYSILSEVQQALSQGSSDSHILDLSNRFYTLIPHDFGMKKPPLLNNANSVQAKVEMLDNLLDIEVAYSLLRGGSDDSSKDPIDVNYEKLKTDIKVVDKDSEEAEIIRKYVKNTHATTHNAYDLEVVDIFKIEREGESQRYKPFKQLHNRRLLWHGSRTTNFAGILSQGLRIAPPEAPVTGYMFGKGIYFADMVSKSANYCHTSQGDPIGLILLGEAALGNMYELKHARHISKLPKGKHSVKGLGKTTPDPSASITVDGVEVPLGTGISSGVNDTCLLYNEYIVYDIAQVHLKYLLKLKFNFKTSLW
Protocol: The activity on PARP was evaluated using purified PARP derived from foetal calf thymus, as per Ito et al. (J. Biol. Chem. […]: 3647, 1979). […] The active fractions were used for the activity tests carried out as per Banasik et al. (J. Biol. Chem. 267: 1569, 1992). […] The reaction was terminated with 10% of trichloroacetic acid and the radioactivity associated with the protein was evaluated in a liquid scintillation spectrometer.

[2] = test system: rats with permanent occlusion of the medial cerebral artery; experiment: MCAO stroke model in rats, infarct volume; type: in vivo, rat; conditions: 3-10 mg/kg i.p., infarct volume measured 72 hrs after occlusion
Protocol: (§1) 2) The biological activity was evaluated in primary neuronal cultures exposed to oxygen and glucose deprivation (see: Neuropharmacology 38: 1007-[…]) and in vivo in rats with MCA [sic]. The volume of the infarct was measured 72 hrs after the occlusion using a method described previously (Cozzi et al., J. Cerebrali Blood Flow Metabolism 19: 771-777; 1999).
In this stroke model, the compound (3-10 mg/kg i.p.) reduced by 40% the volume of necrotic brain induced by the permanent occlusion of the medial cerebral artery.

[3] = test system: primary neuronal cultures; experiment: Post-ischaemic neuronal death in primary neuronal cultures exposed to oxygen and glucose deprivation; type: cell-based; conditions: read-out: IC50 for reducing post-ischaemic neuronal death
Protocol: as §1

Row | SMILES | melting point | IC50 [1] | reduction of the volume of necrotic brain [2] | IC50 [3]
1 | Nc1cccc2c(=O)[nH]c3sccc3c12 [Example 4, 9-Aminothieno[2,3-c]isoquinolin-5(4H)-one] | 297 to 299 °C | 50 nM | – | –
2 | O=c1[nH]c2sccc2c2ccccc12 [Example 1, Thieno[2,3-c]isoquinolin-5(4H)-one] | – | – | 40% | ~3000 nM
3 | NC(=O)c1ccccc1 [Benzamide, reference compound] | – | 90000 nM | – | –
4 | COc1cccc2c(=O)[nH]c3sccc3c12 [Example 3, 9-Methoxythieno[2,3-c]isoquinolin-5(4H)-one] | 198 to 200 °C | 300 nM | – | –
5 | O=c1[nH]c2sccc2c2c(O)cccc12 [Example 2, 9-Hydroxythieno[2,3-c]isoquinolin-5(4H)-one] | 298 to 301 °C | 100 nM | – | –
